Measured values taken from ChEMBL document CHEMBL3885881, “DrugMatrix”.

Organism: Rattus norvegicus
Assay: DrugMatrix - Regimen: Daily Repeat
Format: toxicity, organism-based, Sprague-Dawley
Design: regimen Daily Repeat, gender Male, age 6-8 weeks
Details: in vivo, po, route oral GAVAGE, vehicle 100 % WATER; for ABSOLUTE BASOPHIL / ABSOLUTE EOSINOPHIL / ABSOLUTE LYMPHOCYTE / ABSOLUTE MONOCYTE / ABSOLUTE SEGMENTED NEUTROPHIL / BASOPHIL / EOSINOPHIL / ERYTHROCYTE COUNT / HEMATOCRIT / HEMOGLOBIN / LEUKOCYTE COUNT / LYMPHOCYTE / MEAN CORPUSCULAR HEMOGLOBIN / MEAN CORPUSCULAR HEMOGLOBIN CONCENTRATION / MEAN CORPUSCULAR VOLUME / MONOCYTE / NEUTROPHIL / NUCLEATED RED BLOOD CELLS / PLATELET COUNT: tissue Blood; for ALANINE AMINOTRANSFERASE / ALBUMIN / ALKALINE PHOSPHATASE / ASPARTATE AMINOTRANSFERASE / BLOOD UREA NITROGEN / CARBON DIOXIDE / CHLORIDE / CHOLESTEROL / CREATINE PHOSPHOKINASE / CREATININE / GLUCOSE / LACTATE DEHYDROGENASE / LIPASE / PHOSPHORUS / POTASSIUM / SODIUM / TOTAL BILIRUBIN / TOTAL PROTEIN / URIC ACID: tissue Plasma
[1] = 0.07 mg/kg, 120 h, dose level Low, time 5 day
[2] = 0.5 mg/kg, 72 h, dose level High, time 3 day
[3] = 0.5 mg/kg, 120 h, dose level High, time 5 day

## Cc1cc(C(C)(C)C)c(O)c(C)c1CC1=NCCN1 [OXYMETAZOLINE]
[1]
  ABSOLUTE BASOPHIL: 0 CELLS/uL
  ABSOLUTE EOSINOPHIL: 196 CELLS/uL
  ABSOLUTE LYMPHOCYTE: 15823.67 CELLS/uL
  ABSOLUTE MONOCYTE: 436.67 CELLS/uL
  ABSOLUTE SEGMENTED NEUTROPHIL: 2110.33 CELLS/uL
  BASOPHIL: 0%
  EOSINOPHIL: 1%
  ERYTHROCYTE COUNT: 5.33 x10E6/uL
  HEMATOCRIT: 33.03%
  HEMOGLOBIN: 13.6 G/DL
  LEUKOCYTE COUNT: 18.57 x10E3/uL
  LYMPHOCYTE: 85.33%
  MEAN CORPUSCULAR HEMOGLOBIN: 25.53 pg
  MEAN CORPUSCULAR HEMOGLOBIN CONCENTRATION: 41.13 G/DL
  MEAN CORPUSCULAR VOLUME: 61.93 fL
  MONOCYTE: 2.33%
  NEUTROPHIL: 11.33%
  NUCLEATED RED BLOOD CELLS: 0 /100WBC
  PLATELET COUNT: 1316.33 x10E3/uL
  ALANINE AMINOTRANSFERASE: 45.33 u/L
  ALBUMIN: 4.4 G/DL
  ALKALINE PHOSPHATASE: 411.67 u/L
  ASPARTATE AMINOTRANSFERASE: 82 u/L
  BLOOD UREA NITROGEN: 13 mg/dL
  CARBON DIOXIDE: 29 mmol/L
  CHLORIDE: 101.67 MEQ/L
  CHOLESTEROL: 75.33 mg/dL
  CREATINE PHOSPHOKINASE: 214.67 u/L
  CREATININE: 0.21 mg/dL
  GLUCOSE: 167 mg/dL
  LACTATE DEHYDROGENASE: 203.67 u/L
  LIPASE: 10.67 u/L
  PHOSPHORUS: 11.53 mg/dL
  POTASSIUM: 6.21 MEQ/L
  SODIUM: 142.97 MEQ/L
  TOTAL BILIRUBIN: 0.13 mg/dL
  TOTAL PROTEIN: 5.97 G/DL
  URIC ACID: 1.73 mg/dL
[2]
  ABSOLUTE BASOPHIL: 0 CELLS/uL
  ABSOLUTE EOSINOPHIL: 0 CELLS/uL
  ABSOLUTE LYMPHOCYTE: 15583 CELLS/uL
  ABSOLUTE MONOCYTE: 59.33 CELLS/uL
  ABSOLUTE SEGMENTED NEUTROPHIL: 1491 CELLS/uL
  BASOPHIL: 0%
  EOSINOPHIL: 0%
  ERYTHROCYTE COUNT: 5.61 x10E6/uL
  HEMATOCRIT: 35.17%
  HEMOGLOBIN: 13.97 G/DL
  LEUKOCYTE COUNT: 17.13 x10E3/uL
  LYMPHOCYTE: 91%
  MEAN CORPUSCULAR HEMOGLOBIN: 24.9 pg
  MEAN CORPUSCULAR HEMOGLOBIN CONCENTRATION: 39.73 G/DL
  MEAN CORPUSCULAR VOLUME: 62.7 fL
  MONOCYTE: 0.33%
  NEUTROPHIL: 8.67%
  NUCLEATED RED BLOOD CELLS: 0 /100WBC
  PLATELET COUNT: 1369.67 x10E3/uL
  ALANINE AMINOTRANSFERASE: 42.67 u/L
  ALBUMIN: 3.6 G/DL
  ALKALINE PHOSPHATASE: 345.33 u/L
  ASPARTATE AMINOTRANSFERASE: 79.67 u/L
  BLOOD UREA NITROGEN: 16 mg/dL
  CARBON DIOXIDE: 25.67 mmol/L
  CHLORIDE: 105 MEQ/L
  CHOLESTEROL: 70.67 mg/dL
  CREATINE PHOSPHOKINASE: 215.33 u/L
  CREATININE: 0.14 mg/dL
  GLUCOSE: 166.67 mg/dL
  LACTATE DEHYDROGENASE: 174 u/L
  LIPASE: 9 u/L
  PHOSPHORUS: 10.3 mg/dL
  POTASSIUM: 5.92 MEQ/L
  SODIUM: 144.53 MEQ/L
  TOTAL BILIRUBIN: 0.2 mg/dL
  TOTAL PROTEIN: 5.43 G/DL
  URIC ACID: 1.73 mg/dL
[3]
  ABSOLUTE BASOPHIL: 0 CELLS/uL
  ABSOLUTE EOSINOPHIL: 250.33 CELLS/uL
  ABSOLUTE LYMPHOCYTE: 17058 CELLS/uL
  ABSOLUTE MONOCYTE: 0 CELLS/uL
  ABSOLUTE SEGMENTED NEUTROPHIL: 1425 CELLS/uL
  BASOPHIL: 0%
  EOSINOPHIL: 1.33%
  ERYTHROCYTE COUNT: 5.31 x10E6/uL
  HEMATOCRIT: 33.13%
  HEMOGLOBIN: 13.6 G/DL
  LEUKOCYTE COUNT: 18.73 x10E3/uL
  LYMPHOCYTE: 90.33%
  MEAN CORPUSCULAR HEMOGLOBIN: 25.67 pg
  MEAN CORPUSCULAR HEMOGLOBIN CONCENTRATION: 41.03 G/DL
  MEAN CORPUSCULAR VOLUME: 62.53 fL
  MONOCYTE: 0%
  NEUTROPHIL: 8.33%
  NUCLEATED RED BLOOD CELLS: 0 /100WBC
  PLATELET COUNT: 1420 x10E3/uL
  ALANINE AMINOTRANSFERASE: 47.33 u/L
  ALBUMIN: 3.93 G/DL
  ALKALINE PHOSPHATASE: 346 u/L
  ASPARTATE AMINOTRANSFERASE: 73 u/L
  BLOOD UREA NITROGEN: 14.33 mg/dL
  CARBON DIOXIDE: 30 mmol/L
  CHLORIDE: 104 MEQ/L
  CHOLESTEROL: 72.33 mg/dL
  CREATINE PHOSPHOKINASE: 164.33 u/L
  CREATININE: 0.11 mg/dL
  GLUCOSE: 141 mg/dL
  LACTATE DEHYDROGENASE: 161 u/L
  LIPASE: 10 u/L
  PHOSPHORUS: 10.57 mg/dL
  POTASSIUM: 6.08 MEQ/L
  SODIUM: 142.83 MEQ/L
  TOTAL BILIRUBIN: 0.1 mg/dL
  TOTAL PROTEIN: 5.37 G/DL
  URIC ACID: 1.4 mg/dL
